Results from PubChem BioAssay (NCI).
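Method: 48-hour compound exposure of cells in 96-well plates, five concentrations, linear interpolation of endpoints. Abbreviation: GI50, concentration required for 50% inhibition of growth. TGI: concentration producing complete growth inhibition.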

Key:
Test in all cases: NCI anticancer screen, dose series, 48 h
[1] = system: RPMI-8226 leukemia
[2] = system: ACHN renal
[3] = system: MALME-3M melanoma
[4] = system: DU-145 prostate
[5] = system: EKVX NSCLC
[6] = system: SR leukemia
[7] = system: UACC-62 melanoma
[8] = system: OVCAR-4 ovarian
[9] = system: MDA-MB-435
[10] = system: RXF 393 renal
[11] = system: CCRF-CEM leukemia
[12] = system: U251 CNS
[13] = system: PC-3 prostate
[14] = system: MDA-MB-231 breast
[15] = system: IGROV1 ovarian
[16] = system: HT29 colon
[17] = system: KM12 colon
[18] = system: SW-620 colon
[19] = system: TK-10 renal
[20] = system: SF-295 CNS
[21] = system: A498 renal
[22] = system: UACC-257 melanoma
[23] = system: SF-539 CNS
[24] = system: SN12C renal
[25] = system: UO-31 renal
[26] = system: NCI/ADR-RES ovarian
[27] = system: M14 melanoma
[28] = system: COLO 205 colon
[29] = system: NCI-H226 lung
[30] = system: OVCAR-5 ovarian
[31] = system: CAKI-1 renal
[32] = system: SK-MEL-28 melanoma
[33] = system: MCF7 breast
[34] = system: MOLT-4 leukemia
[35] = system: LOX IMVI melanoma
[36] = system: NCI-H522 lung
[37] = system: A549 NSCLC
[38] = system: OVCAR-3 ovarian
[39] = system: NCI-H23 lung
[40] = system: BT-549 breast
[41] = system: SK-OV-3 ovarian
[42] = system: SNB-19 CNS
[43] = system: OVCAR-8 ovarian
[44] = system: K-562 leukemia
[45] = system: SK-MEL-5 melanoma
[46] = system: SK-MEL-2 melanoma
[47] = system: HCT-116 colon
[48] = system: SF-268 CNS
[49] = system: 786-0 renal
[50] = system: HCT-15 colon
[51] = system: NCI-H460 lung
[52] = system: SNB-75 CNS
[53] = system: HS 578T breast
[54] = system: HCC-2998 colon
[55] = system: HOP-62 NSCLC
[56] = system: HL-60(TB) leukemia

Question: For `O=C1c2ccccc2C(=O)c2c1c(=O)c(=O)c1ccccc1c(=O)n2Cc1ccccc1`, which GI50 [1] is on record?
Answer: The GI50 was 28.5 µM.

Question: What about the TGI [1] of the same compound?
Answer: Its TGI is 85.2 µM.

Question: What about the GI50 [2] of the same compound?
Answer: Its GI50 is greater than 100 µM.

Question: What about the TGI [2] of the same compound?
Answer: Its TGI is greater than 100 µM.

Question: What about the GI50 [3] of the same compound?
Answer: Its GI50 is 28.6 µM.

Question: And the TGI [3]?
Answer: The TGI was 80.1 µM.

Question: And the GI50 [4]?
Answer: The GI50 was 47.9 µM.

Question: What about the TGI [4] of the same compound?
Answer: The TGI was greater than 100 µM.

Question: What about the GI50 [5] of the same compound?
Answer: Its GI50 is greater than 100 µM.

Question: And the TGI [5]?
Answer: The TGI was greater than 100 µM.

Question: And the GI50 [6]?
Answer: Its GI50 is 29 µM.

Question: And the TGI [6]?
Answer: Its TGI is greater than 100 µM.

Question: What about the GI50 [7] of the same compound?
Answer: The GI50 was 66.3 µM.

Question: What about the TGI [7] of the same compound?
Answer: Its TGI is greater than 100 µM.

Question: What about the GI50 [8] of the same compound?
Answer: Its GI50 is greater than 100 µM.

Question: And the TGI [8]?
Answer: The TGI was greater than 100 µM.

Question: What about the GI50 [9] of the same compound?
Answer: The GI50 was greater than 100 µM.

Question: And the TGI [9]?
Answer: The TGI was greater than 100 µM.

Question: And the GI50 [10]?
Answer: Its GI50 is greater than 100 µM.

Question: What about the TGI [10] of the same compound?
Answer: The TGI was greater than 100 µM.

Question: What about the GI50 [11] of the same compound?
Answer: Its GI50 is 7.67 µM.

Question: And the TGI [11]?
Answer: The TGI was greater than 100 µM.

Question: And the GI50 [12]?
Answer: Its GI50 is greater than 100 µM.

Question: What about the TGI [12] of the same compound?
Answer: The TGI was greater than 100 µM.

Question: What about the GI50 [13] of the same compound?
Answer: Its GI50 is greater than 100 µM.

Question: And the TGI [13]?
Answer: Its TGI is greater than 100 µM.

Question: What about the GI50 [14] of the same compound?
Answer: The GI50 was greater than 100 µM.

Question: What about the TGI [14] of the same compound?
Answer: Its TGI is greater than 100 µM.

Question: And the GI50 [15]?
Answer: The GI50 was 79.2 µM.

Question: What about the TGI [15] of the same compound?
Answer: The TGI was greater than 100 µM.

Question: And the GI50 [16]?
Answer: Its GI50 is greater than 100 µM.

Question: What about the TGI [16] of the same compound?
Answer: Its TGI is greater than 100 µM.

Question: And the GI50 [17]?
Answer: Its GI50 is 81.9 µM.

Question: What about the TGI [17] of the same compound?
Answer: The TGI was greater than 100 µM.

Question: And the GI50 [18]?
Answer: The GI50 was greater than 100 µM.

Question: What about the TGI [18] of the same compound?
Answer: The TGI was greater than 100 µM.

Question: And the GI50 [19]?
Answer: The GI50 was greater than 100 µM.

Question: What about the TGI [19] of the same compound?
Answer: The TGI was greater than 100 µM.

Question: And the GI50 [20]?
Answer: Its GI50 is 53.1 µM.

Question: What about the TGI [20] of the same compound?
Answer: The TGI was greater than 100 µM.

Question: What about the GI50 [21] of the same compound?
Answer: Its GI50 is greater than 100 µM.

Question: And the TGI [21]?
Answer: The TGI was greater than 100 µM.

Question: What about the GI50 [22] of the same compound?
Answer: Its GI50 is greater than 100 µM.

Question: And the TGI [22]?
Answer: The TGI was greater than 100 µM.

Question: What about the GI50 [23] of the same compound?
Answer: The GI50 was greater than 100 µM.

Question: And the TGI [23]?
Answer: The TGI was greater than 100 µM.

Question: What about the GI50 [24] of the same compound?
Answer: Its GI50 is greater than 100 µM.

Question: And the TGI [24]?
Answer: Its TGI is greater than 100 µM.

Question: What about the GI50 [25] of the same compound?
Answer: The GI50 was greater than 100 µM.

Question: And the TGI [25]?
Answer: Its TGI is greater than 100 µM.

Question: And the GI50 [26]?
Answer: The GI50 was greater than 100 µM.

Question: And the TGI [26]?
Answer: Its TGI is greater than 100 µM.

Question: What about the GI50 [27] of the same compound?
Answer: Its GI50 is 36.6 µM.

Question: What about the TGI [27] of the same compound?
Answer: Its TGI is greater than 100 µM.

Question: What about the GI50 [28] of the same compound?
Answer: Its GI50 is greater than 100 µM.

Question: And the TGI [28]?
Answer: Its TGI is greater than 100 µM.

Question: And the GI50 [29]?
Answer: Its GI50 is greater than 100 µM.

Question: And the TGI [29]?
Answer: Its TGI is greater than 100 µM.

Question: And the GI50 [30]?
Answer: Its GI50 is greater than 100 µM.

Question: And the TGI [30]?
Answer: The TGI was greater than 100 µM.

Question: And the GI50 [31]?
Answer: The GI50 was greater than 100 µM.

Question: What about the TGI [31] of the same compound?
Answer: Its TGI is greater than 100 µM.

Question: What about the GI50 [32] of the same compound?
Answer: The GI50 was greater than 100 µM.

Question: And the TGI [32]?
Answer: The TGI was greater than 100 µM.

Question: And the GI50 [33]?
Answer: The GI50 was 79.1 µM.

Question: And the TGI [33]?
Answer: The TGI was greater than 100 µM.

Question: What about the GI50 [34] of the same compound?
Answer: Its GI50 is 38.2 µM.

Question: And the TGI [34]?
Answer: The TGI was greater than 100 µM.

Question: And the GI50 [35]?
Answer: The GI50 was 92.9 µM.

Question: And the TGI [35]?
Answer: The TGI was greater than 100 µM.

Question: What about the GI50 [36] of the same compound?
Answer: The GI50 was greater than 100 µM.

Question: And the TGI [36]?
Answer: The TGI was greater than 100 µM.

Question: And the GI50 [37]?
Answer: The GI50 was 47.2 µM.

Question: What about the TGI [37] of the same compound?
Answer: Its TGI is greater than 100 µM.

Question: And the GI50 [38]?
Answer: Its GI50 is 88.8 µM.

Question: And the TGI [38]?
Answer: Its TGI is greater than 100 µM.

Question: And the GI50 [39]?
Answer: The GI50 was 8.51 µM.

Question: And the TGI [39]?
Answer: Its TGI is greater than 100 µM.

Question: And the GI50 [40]?
Answer: Its GI50 is greater than 100 µM.

Question: And the TGI [40]?
Answer: Its TGI is greater than 100 µM.

Question: What about the GI50 [41] of the same compound?
Answer: The GI50 was greater than 100 µM.

Question: What about the TGI [41] of the same compound?
Answer: The TGI was greater than 100 µM.

Question: What about the GI50 [42] of the same compound?
Answer: Its GI50 is greater than 100 µM.

Question: What about the TGI [42] of the same compound?
Answer: Its TGI is greater than 100 µM.

Question: What about the GI50 [43] of the same compound?
Answer: The GI50 was greater than 100 µM.

Question: And the TGI [43]?
Answer: Its TGI is greater than 100 µM.

Question: What about the GI50 [44] of the same compound?
Answer: Its GI50 is 53.7 µM.

Question: What about the TGI [44] of the same compound?
Answer: The TGI was greater than 100 µM.

Question: And the GI50 [45]?
Answer: The GI50 was 15.8 µM.

Question: What about the TGI [45] of the same compound?
Answer: The TGI was 47.2 µM.

Question: What about the GI50 [46] of the same compound?
Answer: Its GI50 is greater than 100 µM.

Question: What about the TGI [46] of the same compound?
Answer: Its TGI is greater than 100 µM.

Question: What about the GI50 [47] of the same compound?
Answer: Its GI50 is greater than 100 µM.

Question: And the TGI [47]?
Answer: Its TGI is greater than 100 µM.

Question: And the GI50 [48]?
Answer: The GI50 was greater than 100 µM.

Question: And the TGI [48]?
Answer: Its TGI is greater than 100 µM.

Question: And the GI50 [49]?
Answer: Its GI50 is greater than 100 µM.

Question: What about the TGI [49] of the same compound?
Answer: The TGI was greater than 100 µM.

Question: What about the GI50 [50] of the same compound?
Answer: Its GI50 is greater than 100 µM.

Question: And the TGI [50]?
Answer: The TGI was greater than 100 µM.

Question: What about the GI50 [51] of the same compound?
Answer: Its GI50 is 50.7 µM.

Question: What about the TGI [51] of the same compound?
Answer: The TGI was greater than 100 µM.

Question: What about the GI50 [52] of the same compound?
Answer: Its GI50 is greater than 100 µM.

Question: And the TGI [52]?
Answer: Its TGI is greater than 100 µM.

Question: And the GI50 [53]?
Answer: The GI50 was greater than 100 µM.

Question: And the TGI [53]?
Answer: The TGI was greater than 100 µM.

Question: What about the GI50 [54] of the same compound?
Answer: The GI50 was 84.2 µM.

Question: What about the TGI [54] of the same compound?
Answer: Its TGI is greater than 100 µM.

Question: What about the GI50 [55] of the same compound?
Answer: Its GI50 is greater than 100 µM.

Question: What about the TGI [55] of the same compound?
Answer: Its TGI is greater than 100 µM.

Question: And the GI50 [56]?
Answer: Its GI50 is 41.8 µM.

Question: And the TGI [56]?
Answer: Its TGI is greater than 100 µM.
